According to US20250326722A1 (SHANGHAI HANSOH BIOMEDICAL CO., LTD., priority 2022, published 2025):

Key:
PCSK9 protein = PCSK9 protein (Homo sapiens (Human), UniProt Q8NBP7); assay: Binding experiment: surface plasmon resonance (SPR) binding to PCSK9 protein
Source text: • 1. Experimental objective: To detect the action of compounds to bind PCSK9 protein by a conventional surface plasmon resonance (SPR) method.

[1] = target: PCSK9 secreted by HepG2 cells (Homo sapiens (Human), UniProt Q8NBP7); assay: Effect on the concentration of PCSK9 secreted by HepG2 cells (ELISA); format: cell-based; details: 48 hours incubation, read-out: Inhibitory activity on PCSK9, IC50
Chain of PCSK9 secreted by HepG2 cells (Q8NBP7 153-692): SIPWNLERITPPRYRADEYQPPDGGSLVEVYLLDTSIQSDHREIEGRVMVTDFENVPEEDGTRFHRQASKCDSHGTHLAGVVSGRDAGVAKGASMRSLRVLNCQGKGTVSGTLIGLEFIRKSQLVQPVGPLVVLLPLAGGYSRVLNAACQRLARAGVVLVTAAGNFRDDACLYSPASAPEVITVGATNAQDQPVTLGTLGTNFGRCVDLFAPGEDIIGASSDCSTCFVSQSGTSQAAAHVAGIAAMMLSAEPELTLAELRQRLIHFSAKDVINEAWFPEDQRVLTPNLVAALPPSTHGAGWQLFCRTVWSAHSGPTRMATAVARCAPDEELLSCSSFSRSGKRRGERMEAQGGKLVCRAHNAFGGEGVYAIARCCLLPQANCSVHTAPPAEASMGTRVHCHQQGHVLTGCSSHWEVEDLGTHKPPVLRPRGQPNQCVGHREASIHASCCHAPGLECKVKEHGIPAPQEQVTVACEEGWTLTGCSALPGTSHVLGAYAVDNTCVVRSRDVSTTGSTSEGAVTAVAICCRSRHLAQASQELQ
Chain of PCSK9 secreted by HepG2 cells (Q8NBP7 31-152 partner): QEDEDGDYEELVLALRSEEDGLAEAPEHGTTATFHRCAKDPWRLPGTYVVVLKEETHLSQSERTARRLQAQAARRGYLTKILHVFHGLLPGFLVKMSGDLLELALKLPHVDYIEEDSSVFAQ

[2] = test system: LDLR level in HepG2 cells; assay: Effect on the LDLR level in HepG2 cells (ELISA); format: cell-based, human; set-up: concentration or dose not given beside the values; details: 48 hours incubation, LDLR ELISA of lysate
Method: To detect the effect of the compounds on the LDLR protein level.
Envision (PE-Cisbio: 2105-0020), centrifuge (Eppendorf: 5810R), water purifier (THERMO: Pacific T II+Micropure), plate washer (Thermo: […] VERSA), and microplate shaker (Thermo: 88882006)
• 1) HepG2 cell strain was cultured in the complete culture medium at 37° C., 5% CO2 to 70-90% confluence. • 2) The cells were digested and resuspended in the experimental culture medium, inoculation was performed at 25,000 cells/well/200 μL in a 96-well cell culture plate, and the cells were cultured at 37° C., 5% CO2 for 20-24 hours. • 3) The culture medium was removed from the cell culture plate, and the cell culture plate was washed once by adding 200 μl of the experimental culture medium to each well. • 4) Preparation of positive control compound and compound to be tested: the positive control compound and the compound to be tested were diluted on the compound plate. • 5) The diluted compound was added to the cell culture plate at 250 μL per well and incubated at 37° C. and 5% CO2 for 48 hours. • 6) The cell culture medium was removed, the cells were washed with PBS, and 50 μL of the cell lysis buffer and the protein inhibitor were added. • 7) After centrifugation, the lysate was removed and the sample was stored for later use. • 8) Preparation of standard curve: corresponding volumes of Dilution buffer were successively added to respective standard tubes, and the standard was diluted in series by taking the corresponding volume from the original tube or the last concentration tube. • 9) Preparation of washing liquid: 10× Wash buffer was diluted into 1× with Milli-Q for later use. • 10) According to the standard curve wells and sample wells set according to a plate map, 80 μL/well of the corresponding standards and samples were added to the wells, with 2 replicate wells. A well in which no standard was added was used as a background value well. A self-adhesive seal was applied, the plate was placed on a plate shaker at room temperature, gently shaken, uniformly mixed, and incubated for 2 hours. • 11) The plate was placed on the plate washer, the washing liquid was set to 350 μL per well, and the plate was washed 4 times repeatedly. • 12) 200 μL of Human LDLR conjugate was added, a self-adhesive seal was applied, and the plate was placed on the plate shaker, well mixed uniformly, and incubated for 2 hours. • 13) The plate was placed on the plate washer, the washing liquid was set to 350 μL per well, and the plate was washed 4 times repeatedly. • 14) 200 μL/well of Substrate solution was added, and the plate was placed in the dark, applied with a self-adhesive seal, placed on the plate shaker, well mixed uniformly, and incubated for 20 minutes. • 15) 50 μL/well of Stop solution was added and mixed uniformly over 20 min. • 16) The optical density (OD) value in each well was measured in sequence at a wavelength of 450 nm by the microplate reader.
After the OD values were read by the microplate reader, the OD value of the 0-concentration standard in the standard group was subtracted from the OD values of the standards, control group, and samples to obtain the actual OD values for these wells. A standard curve was plotted with Graphpad and the concentration of the sample was calculated. If the dilution was performed during the sample detection, the calculated sample concentration was necessarily multiplied by the corresponding dilution ratio in the final calculation, which was the actual concentration of the sample. Concentration increase %=(actual concentration in control-actual concentration in sample)/actual concentration in control*100.

[3] = test system: hyperlipidemia animal model of B6-hPCSK9 transgenic mice; assay: In vivo pharmacodynamics in hyperlipidemia animal model of B6-hPCSK9 transgenic mice; set-up: species or system B6-hPCSK9 transgenic C57 mice; details: PO administration, Day 14, high-fat feed
Method: The compounds of the present disclosure were evaluated for in vivo pharmacodynamics in a hyperlipidemia animal model of B6-hPCSK9 transgenic mice.
B6-hPCSK9 transgenic C57 mice, 6-8 weeks old, male, purchased from Jiangsu GemPharmatech Co., Ltd.
After delivery to a barrier system, the animals were given one week for acclimatization and began to feed on the high-fat feed. The body weight and feed weight were weighed once a week, and the body weight and food intake thereof were recorded.
a. The animals were grouped by a random grouping method.
c. According to the grouping results, administration with the test drug was started (mode of administration: oral administration; administration volume: 10 mL/kg; frequency of administration: once/day or single administration; administration cycle: 21 days; vehicle: 10% Solutol HS 15/90% Saline).
d. After the test drug was administered, the body weight and feed weight were weighed twice a week and blood was taken once a week.
e. The data was processed with software such as Excel. […] PCSK9 in plasma was detected by ELISA.

[4] = Pharmacokinetic determination in mice (plasma); format: in vivo, C57BL/6J mice; details: C57 mice, PO administration, 5 mpk; for AUC(0-inf) / half-life / MRT / Cmax: male, C57BL/6J, mouse, 5 mg/kg; for AUC(0-inf): read-out: Area under the curve AUC0-∞; for half-life: read-out: Half-life t1/2 (converted); for MRT: read-out: Mean residence time MRT; for Cmax: read-out: Plasma concentration Cmax
Outline: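 Male C57BL/6J mice (n=3 per route), fasted overnight, got 5 mg/kg PO in 10% Solutol HS15 or 1 mg/kg IV in 5% DMSO/10% Solutol HS15/85% PBS. Orbital blood was sampled at 0.083 (IV only), 0.25, 0.5, 1, 2, 4, 8 and 24 h. EDTA-K2 plasma was quantified by LC-MS/MS for PK parameters.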

Chain of PCSK9 protein (Q8NBP7 153-692): as the sequence (Q8NBP7 153-692) above

Compound	Kd (PCSK9 protein) [nM]	IC50 [1] [nM]	Time to peak tmax [4] [h]	AUC(0-inf) [4] [ng·h/mL]	half-life [4] [h]	MRT [4] [h]	Cmax [4] [ng/mL]	LDLR expression level [2] [%]	LDL-C change, Day 14 ([3]; 6 mpk) [%]	LDL-C change, Day 14 ([3]; 3 mpk) [%]	LDL-C change, Day 14 ([3]; 5 mpk) [%]	LDL-C change, Day 14 ([3]; 10 mpk) [%]
O=c1ccccn1-c1ccc(N[C@H]2CC[C@H](Nc3nc4cc(F)ccn4n3)C2)nc1 [Example 27, 6′-((3-(((1S,3S)-7-fluoro-[1,2,4]triazolo[1,5-a]pyridin-2-yl)amino)cyclopentyl)amino)-2H-[1,3′-bipyridinyl]-2-one]	2.6								−31.52			
O=C1c2ncccc2CN1c1ccc(N[C@H]2CC[C@H](Nc3ncc(OC(F)F)cn3)C2)nc1 [Example 57, 6-(6-(((1S,3S)-3-((5-(difluoromethoxy)pyrimidin-2-yl)amino)cyclopentyl)amino)pyridin-3-yl)-5,6-dihydro-7H-pyrrolo[3,4-b]pyridin-7-one]		22000	1	41500	5.9	4.8	9960			−46.22		
O=C1c2cccnc2CN1c1ccc(N[C@H]2CC[C@H](Nc3ncc(OC(F)F)cn3)C2)nc1 [Example 77, 6-(6-(((1S,3S)-3-((5-(difluoromethoxy)pyrimidin-2-yl)amino)cyclopentyl)amino)pyridin-3-yl)-6,7-dihydro-5H-pyrrolo[3,4-b]pyridin-5-one]	1.5		0.25	8080	4.3	2.1	4720	117				
O=C1c2ncccc2CN1c1ccc(N[C@H]2CC[C@H](Nc3nc4cc(C(F)(F)F)ccn4n3)C2)nc1 [Example 143, 6-(6-(((1S,3S)-3-((7-(trifluoromethyl)-[1,2,4]triazolo[1,5-a]pyridin-2-yl)amino)cyclopentyl)amino)pyridin-3-yl)-5,6-dihydro-7H-pyrrolo[3,4-b]pyridin-7-one]	1.2		1	11600	3.9	2.2	3870					−34.97
Cc1cc2c(cn1)CN(c1ccc(N[C@H]3CC[C@H](Nc4nc5cc(F)ccn5n4)C3)nc1)C2=O [Example 147, 2-(6-(((1S,3S)-3-((7-fluoro-[1,2,4]triazolo[1,5-a]pyridin-2-yl)amino)cyclopentyl)amino)pyridin-3-yl)-6-methyl-2,3-dihydro-1H-pyrrolo[3,4-c]pyridin-1-one]		24100	2	52000	4.4	4.8	8230			−23.20		

Second part, led by results:

Kd (PCSK9 protein) [nM]	IC50 [1] [nM]	Time to peak tmax [4] [h]	AUC(0-inf) [4] [ng·h/mL]	half-life [4] [h]	MRT [4] [h]	Cmax [4] [ng/mL]	Compound	LDLR expression level [2] [%]	LDL-C change, Day 14 ([3]; 6 mpk) [%]	LDL-C change, Day 14 ([3]; 3 mpk) [%]	LDL-C change, Day 14 ([3]; 5 mpk) [%]	LDL-C change, Day 14 ([3]; 10 mpk) [%]
2.4	14000						O=c1ccccn1-c1ccc(N[C@H]2CC[C@H](Nc3ncc4cccn4n3)C2)nc1 [Example 20, 6′-(((1S,3S)-3-(pyrrolo[2,1-f][1,2,4]triazin-2-ylamino)cyclopentyl)amino)-2H-[1,3′-bipyridinyl]-2-one]	302				
	7400	0.5	9640	3.9	1.5	4880	O=C1c2ncccc2CN1c1ccc(N[C@H]2CC[C@H](Nc3nc4cc(F)ccn4n3)C2)nc1 [Example 129, 6-(6-(((1S,3S)-3-((7-fluoro-[1,2,4]triazolo[1,5-a]pyridin-2-yl)amino)cyclopentyl)amino)pyridin-3-yl)-5,6-dihydro-7H-pyrrolo[3,4-b]pyridin-7-one]				−21.98	
	2200	2	76600	4.1	5.8	9360	O=C1c2ncccc2CN1c1ccc(N[C@H]2CC[C@H](Nc3ncc(C(F)(F)F)cn3)C2)nc1 [Example 134, 6-(6-(((1S,3S)-3-((5-(trifluoromethyl)pyrimidin-2-yl)amino)cyclopentyl)amino)-3-yl)-5,6-dihydro-7H-pyrrolo[3,4-b]pyridin-7-one]				−60.65	
1.4	15500	0.5	24200	4.8	2.4	12300	Cc1nccc2c1CN(c1ccc(N[C@H]3CC[C@H](Nc4nc5cc(F)ccn5n4)C3)nc1)C2=O [Example 149, 2-(6-(((1S,3S)-3-((7-fluoro-[1,2,4]triazolo[1,5-a]pyridin-2-yl)amino)cyclopentyl)amino)pyridin-3-yl)-4-methyl-2,3-dihydro-1H-pyrrolo[3,4-c]pyridin-1-one]					−41.65
	1300	2	97700	15.1	19	7420	O=C1c2cc(C(F)(F)F)ncc2CN1c1ccc(N[C@H]2CC[C@H](Nc3nc4cc(F)ccn4n3)C2)nc1 [Example 151, 2-(6-(((1S,3S)-3-((7-fluoro-[1,2,4]triazolo[1,5-a]pyridin-2-yl)amino)cyclopentyl)amino)pyridin-3-yl)-6-(trifluoromethyl)-2,3-dihydro-1H-pyrrolo[3,4-c]pyridin-1-one]	138				
4.8	2100	1	19700	3.6	3.2	5010	Cc1cc2c(cn1)CN(c1ccc(N[C@H]3CC[C@H](Nc4nc5cc(C(F)(F)F)ccn5n4)C3)nc1)C2=O [Example 156, 6-Methyl-2-(6-(((1S,3S)-3-((7-(trifluoromethyl)-[1,2,4]triazolo[1,5-a]pyridin-2-yl)amino)cyclopentyl)amino)pyridin-3-yl)-2,3-dihydro-1H-pyrrolo[3,4-c]pyridin-1-one]					−25.97
	1900	4	22400	16.2	19.5	2320	O=C1c2cccc(C(F)(F)F)c2CN1c1ccc(N[C@H]2CC[C@H](Nc3ncc(C(F)(F)F)nn3)C2)nc1 [Example 158, 4-(Trifluoromethyl)-2-(6-(((1S,3S)-3-((6-(trifluoromethyl)-1,2,4-triazin-3-yl)amino)cyclopentyl)amino)pyridin-3-yl) isoindolin-1-one]					−28.97
